# Data taken from paper PMC7044277 (Nature Communications, 2020).
# Values joined by “and” are separate entries in the source; they are usually repeats but may differ in a detail not shown here. Equal entries are not always repeated.
# Columns and labels:
# [1] = target: 5HT1E (Homo sapiens, UniProt P28566); assay: β-arrestin2 recruitment (Tango); assay type: cell-based; conditions: Fig_S10i
# [2] = target: T1, 5HT1A (Homo sapiens, UniProt P08908); assay: β-arrestin2 recruitment (Tango); assay type: cell-based; conditions: Fig_S10f, single replicates
# T1 construct: expressed in transfected cells; host or cells: HTLA cells expressing TEV-fused β-arrestin2
# T1 sequence (P08908 1-422): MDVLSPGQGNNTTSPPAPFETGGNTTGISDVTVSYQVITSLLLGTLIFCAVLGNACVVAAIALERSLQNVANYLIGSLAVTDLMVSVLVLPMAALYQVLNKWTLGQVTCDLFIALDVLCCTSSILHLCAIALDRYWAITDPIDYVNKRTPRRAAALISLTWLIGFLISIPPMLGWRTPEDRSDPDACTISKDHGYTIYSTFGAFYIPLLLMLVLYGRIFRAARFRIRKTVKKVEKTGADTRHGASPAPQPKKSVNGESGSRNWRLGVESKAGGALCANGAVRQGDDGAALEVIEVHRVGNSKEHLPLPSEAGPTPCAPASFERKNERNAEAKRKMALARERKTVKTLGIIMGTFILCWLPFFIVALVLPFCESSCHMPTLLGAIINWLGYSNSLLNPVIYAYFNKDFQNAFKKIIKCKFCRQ
# [3] = tested on: serotonin receptor (subtype not given; reference agonist serotonin); assay: β-arrestin2 recruitment (Tango), agonist activity, source data Fig_S10m; assay type: cell-based, human; conditions: drug alone
# [4] = target: T2, 5HT1F (Homo sapiens, UniProt P30939); assay: β-arrestin2 recruitment (Tango); assay type: cell-based; conditions: for β-arrestin2 recruitment response, agonist mode (single replicate values): Fig_S10j; for Fig_S10j dose-response, drug alone (agonist mode), β-arrestin2 recruitment: single replicate values
# T2 construct: expressed in transfected cells; host or cells: HTLA cells expressing TEV-fused β-arrestin2
# T2 sequence (P30939 1-366): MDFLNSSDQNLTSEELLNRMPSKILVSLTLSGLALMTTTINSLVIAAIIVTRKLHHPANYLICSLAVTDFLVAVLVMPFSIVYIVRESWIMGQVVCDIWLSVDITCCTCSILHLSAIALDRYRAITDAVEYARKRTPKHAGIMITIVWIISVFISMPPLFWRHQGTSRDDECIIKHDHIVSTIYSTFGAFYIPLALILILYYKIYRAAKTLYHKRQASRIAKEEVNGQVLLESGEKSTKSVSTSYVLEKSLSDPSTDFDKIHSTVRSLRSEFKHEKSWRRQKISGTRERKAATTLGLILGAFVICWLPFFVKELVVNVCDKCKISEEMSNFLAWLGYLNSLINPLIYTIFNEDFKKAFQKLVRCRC
# Sequence of 5HT1E (P28566 whole entry): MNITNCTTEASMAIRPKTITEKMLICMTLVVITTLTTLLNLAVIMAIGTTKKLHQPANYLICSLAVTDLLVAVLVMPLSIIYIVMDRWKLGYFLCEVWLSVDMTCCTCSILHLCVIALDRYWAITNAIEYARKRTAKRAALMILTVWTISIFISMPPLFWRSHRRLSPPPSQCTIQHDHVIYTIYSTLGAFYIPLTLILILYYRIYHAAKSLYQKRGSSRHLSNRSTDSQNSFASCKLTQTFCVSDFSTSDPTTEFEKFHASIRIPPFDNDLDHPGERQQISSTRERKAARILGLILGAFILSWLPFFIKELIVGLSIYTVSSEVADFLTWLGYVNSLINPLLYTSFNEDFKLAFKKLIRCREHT
smiles,measurement,setting,value
NCCc1c[nH]c2ccc(O)cc12 [serotonin],"β-arrestin2 recruitment response, agonist mode (single replicate values)",[1]; Log[Drug] -5.52,108.092 and 78.7034 and 68.0996 and 111.634 and 84.2736 and 51.0795 and 58.1946
same,"β-arrestin2 recruitment response, agonist mode (single replicate values)",[1]; Log[Drug] -6,49.7303 and 44.0521 and 69.0964 and 55.0788 and 40.5129 and 63.4469 and 42.3724 and 34.8106
same,"β-arrestin2 recruitment response, agonist mode (single replicate values)",[1]; Log[Drug] -6.52,106.224 and 69.1939 and 36.3693 and 81.3314 and 34.6361 and 22.755 and 52.7781 and 32.1336 and 42.1707
same,"β-arrestin2 recruitment response, agonist mode (single replicate values)",[1]; Log[Drug] -7,29.3778 and 17.2077 and 21.8054 and 52.9182 and 14.1436 and 22.9549 and 34.3028 and 15.3331 and 17.5442
same,"β-arrestin2 recruitment response, agonist mode (single replicate values)",[1]; Log[Drug] -7.52,41.4851 and -6.092 and 11.8176 and 23.4775 and 20.4513 and 6.343 and -1.8765 and -0.1243 and 3.783
same,"β-arrestin2 recruitment response, agonist mode (single replicate values)",[1]; Log[Drug] -8,21.7287 and -17.9678 and 1.664 and 16.3198 and 16.2023 and 1.767 and -8.704 and -1.0625 and 5.333
same,"β-arrestin2 recruitment response, agonist mode (single replicate values)",[1]; Log[Drug] -8.52,26.6743 and -0.7908 and -7.94 and 18.4011 and -5.808 and -1.038 and -3.241 and -4.6991 and -0.4891
same,"β-arrestin2 recruitment response, agonist mode (single replicate values)",[1]; Log[Drug] -9,-13.5816 and -3.11 and -9.22 and 15.9426 and -4.472 and -7.47 and -3.2021 and 8.202 and 2.053
same,"β-arrestin2 recruitment response, agonist mode (single replicate values)",[1]; Log[Drug] -9.52,-5.0682 and -13.6215 and 3.951 and -3.374 and 10.856 and -15.4751 and -6.969 and 2.056 and -4.273
same,"β-arrestin2 recruitment response, agonist mode (single replicate values)",[1]; Log[Drug] -10,-0.8245 and 7.169 and 4.501 and 15.8236 and -1.758 and 5.793 and -9.018 and 1.66
same,"β-arrestin2 recruitment response, agonist mode (single replicate values)",[1]; Log[Drug] -10.52,-1.038 and -22.0751 and -13.8927 and 22.1779 and 3.45 and -2.9 and -5.64 and 8.736
same,"β-arrestin2 recruitment response, agonist mode (single replicate values)",[1]; Log[Drug] -11,-16.6513 and -2.431 and 20.3066 and 6.343 and -2.603 and 3.357
same,"β-arrestin2 recruitment response, agonist mode (normalized)",[2]; Log[Drug] -9.52,0.051 and -0.6094 and 0.4564 and 0.9983 and -0.6725 and -0.3119 and 0.3423 and -0.09315 and -0.541 and 0.6114
same,"β-arrestin2 recruitment response, agonist mode (normalized)",[2]; Log[Drug] -10,-0.5013 and -1.706 and 4.314 and 0.8312 and -0.5054 and -0.4971 and 1.761 and 0.86 and 0.493 and 1.8886 and 0.4834
same,"β-arrestin2 recruitment response, agonist mode (normalized)",[2]; Log[Drug] -10.52,0.008354 and -1.487 and -0.1989 and 2.088 and -0.6683 and 3.151 and -0.06065 and -0.5318 and -0.2913
same,"β-arrestin2 recruitment response, agonist mode (normalized)",[2]; Log[Drug] -11,-0.8312 and 0.8491 and 0.1249 and -0.3544 and 0.3342 and 1.248 and -0.5329 and 0.3 and -1.04 and 0.4834
same,"β-arrestin2 recruitment response, agonist mode (normalized)",[2]; Log[Drug] -11.52,-0.8271 and 2.483 and -0.08669 and -0.3213 and -0.5138 and 3.162 and -0.4376 and 0.6466 and -0.1376 and 0.477 and 1.383 and 1.636
same,"β-arrestin2 recruitment response, agonist mode (normalized)",[2]; Log[Drug] -12,-0.1546 and 0.0408 and 0.03825 and -0.07649 and -0.33 and -0.5096 and -0.8188 and 0.4787 and -0.4787 and 6.658 and -0.3041 and 1.905
same,"response, Fig_S10m, replicate values",[3]; Log[Drug] -10,3.734 and -1.123 and -0.8977 and 1.459 and 2.0512 and -0.1515 and 0.5699 and -0.8279 and -0.6726
same,"response, Fig_S10m, replicate values",[3]; Log[Drug] -10.52,-0.9054 and 0.7992 and -0.375 and 2.687 and -0.4536 and -1.101 and 0.7884 and 1.319 and 1.427
same,"response, Fig_S10m, replicate values",[3]; Log[Drug] -11,-0.3557 and -1.309 and -0.2288 and 0.2231 and 0.02755 and -0.2525 and -0.3422 and 5.614 and 6.013
same,"response, Fig_S10m, replicate values",[3]; Log[Drug] -11.52,-1.125 and -2.817 and 2.535 and -0.5885 and 3.063 and -0.9769 and 1.62 and 5.903 and -1.503
same,"response, Fig_S10m, replicate values",[3]; Log[Drug] -12,-0.7563 and 2.962 and 1.0473 and 9.322 and 7.524 and 1.413 and -1.187 and 0.2988 and 0.8898
same,"β-arrestin2 recruitment response, agonist mode (single replicate values)",[4]; Log[Drug] -8,-3.452 and 0.8129 and -0.7741 and 0.7081 and -0.3166
same,"β-arrestin2 recruitment response, agonist mode (single replicate values)",[4]; Log[Drug] -8.52,1.467 and -0.5936 and -0.6771 and -0.2347 and -1.695 and -2.24 and -2.059 and -1.682 and -0.1562 and 2.169 and 0.8707 and -1.81
same,"β-arrestin2 recruitment response, agonist mode (single replicate values)",[4]; Log[Drug] -9,-0.04426 and -0.9855 and -1.843 and -0.9137 and -1.161 and -1.413 and 1.14 and -2.447 and -1.948 and 1.946 and -0.5 and -0.1377
same,"β-arrestin2 recruitment response, agonist mode (single replicate values)",[4]; Log[Drug] -9.52,-2.101 and 2.6714 and -0.3744 and -0.1804 and 3.084 and -0.3427 and -1.809 and -0.4001 and 2.85 and -0.1339 and -0.298
same,"β-arrestin2 recruitment response, agonist mode (single replicate values)",[4]; Log[Drug] -10,-0.8375 and -0.7488 and -1.773 and 1.74 and -2.24 and -1.559 and -0.2741 and -1.133 and -0.7969 and 0.416 and -0.2133 and -1.1997
same,"β-arrestin2 recruitment response, agonist mode (single replicate values)",[4]; Log[Drug] -10.52,-2.914 and -1.511 and -1.366 and -1.154 and -2.628 and -0.5924 and -0.6184 and 5.324 and 0.8942 and 0.1831 and -0.2458 and -1.109
same,"β-arrestin2 recruitment response, agonist mode (single replicate values)",[4]; Log[Drug] -11,4.606 and -2.13 and -1.057 and 0.00776 and -2.261 and -1.2903 and -0.3379 and -1.603 and 0.8607 and 0.8858 and 0.4773 and -0.3843
same,"β-arrestin2 recruitment response, agonist mode (single replicate values)",[4]; Log[Drug] -11.52,-1.978 and -2.064 and -1.769 and 3.255 and 2.53 and 1.832 and 0.0271 and 2.781 and -0.9914 and 1.71 and -0.0711 and -0.3911
same,"β-arrestin2 recruitment response, agonist mode (single replicate values)",[4]; Log[Drug] -12,-1.651 and 2.46 and -1.762 and -0.6984 and -0.5958 and -0.3302 and -0.006376 and -1.878 and -2.439 and 3.47 and -0.3101 and 0.7769
same,"Fig_S10j dose-response, drug alone (agonist mode), β-arrestin2 recruitment",[4]; Log[Drug] -5,60.4606 and 65.0002 and 90.3142 and 57.9444 and 78.7631 and 57.8244 and 78.5234 and 70.8275 and 63.3071
same,"Fig_S10j dose-response, drug alone (agonist mode), β-arrestin2 recruitment",[4]; Log[Drug] -5.52,68.8966 and 66.6667 and 38.5966 and 34.7166 and 67.3748 and 41.3918 and 50.0717 and 43.7042 and 56.4145 and 60.2307 and 56.8071
same,"Fig_S10j dose-response, drug alone (agonist mode), β-arrestin2 recruitment",[4]; Log[Drug] -6,65.3117 and 41.5532 and 32.9512 and 18.8414 and 35.6041 and 33.2006 and 38.6085 and 22.7128 and 20.6455 and 38.0393 and 43.4213 and 39.1952
same,"Fig_S10j dose-response, drug alone (agonist mode), β-arrestin2 recruitment",[4]; Log[Drug] -6.52,37.7864 and 17.7453 and 10.6352 and 8.195 and 10.8807 and 16.9203 and 24.2636 and 7.26 and 7.434 and 25.9629 and 24.0976 and 19.2564
same,"Fig_S10j dose-response, drug alone (agonist mode), β-arrestin2 recruitment",[4]; Log[Drug] -7,0.08171 and 0.8827 and 2.8945 and 3.486 and 0.8409 and 1.495 and 3.165 and 2.979 and 1.237 and 11.4622 and 7.762 and 4.191
same,"Fig_S10j dose-response, drug alone (agonist mode), β-arrestin2 recruitment",[4]; Log[Drug] -7.52,-1.661 and -1.926 and 1.238 and 3.081 and -2.387 and 1.699 and 4.498 and -1.4313 and 5.445 and 5.244 and 1.302 and 0.4992
